Where “and” joins values, the source holds several entries; their conditions need not be identical. Equal values may be shown once. One block for each compound: values may come before it. Non-standard residues stand in square brackets, D forms with d. Residues, ends and D or L forms follow the SMILES beside them. *: point of attachment. X1 = O=C(Cn1cc(CCCF)nn1)NCC1OC(C(=O)*)C(O)C(O)C1O
Assays:
integrin αvβ3 [1] = molecular target: T1, integrin αvβ3 (Homo sapiens, UniProt P05106+P06756); conditions: background statement; cited from earlier work
M21 melanoma xenograft = conditions: integrin-positive M21 melanoma xenograft; cited from earlier work
[2] = test system: A431 human squamous cell carcinoma model; conditions: integrin negative cell line A431; cited from earlier work
[3] = cited from earlier work
[4] = molecular target: T2, Integrin αvβ3 expressing U87MG cells (Homo sapiens, UniProt P05106+P06756); experiment: Cell-based integrin receptor-binding competition assay against fluorescent compound 21; conditions: 10 nM compound 21, 2 hrs, FIG. 4
T2 construct: Integrin αvβ3 expressing U87MG cells; endogenous in cells; host or cells: U87MG
Method: After incubation, cells were washed three times to eliminate unbound cyclic peptides. Fluorescence readings (RLU) were then taken (excitation at 491 nm, emission at 518 nm, cutoff 515 nm). Fluorescence signals of wells without cyclic peptides were set as 100% and used as control. […] All treatments were carried out in triplicates.

integrin αvβ3 [5] = molecular target: T1, integrin αvβ3; experiment: Binding affinity to integrin αvβ3, summary statements (FIG. 1-4); conditions: general statement
Method: Compound 20 was immobilized onto a CM5 chip (Supplier: Biacore. CM5 is a SPR chip with a carboxymethylated dextran covalently attached to a gold surface) via amine coupling. Intergrin αvβ3 samples at 50 nM concentration, premixed with a wide range of concentrations of RGD test compound (0˜2000 nM), were flowed through the CM5 chip at 14° C.
The interactions between the flowing integrin αvβ3 sample and the surface of the chip were recorded by Biacore sensorgram signals. Flow cell #1 served as blank control and the flow cell #2 were coated with compound 20. After subtraction the blank signal of flow cell #1 from the signal of flow cell #2, the resulting sensorgram signals from each cycle were converted into percentage values and the Kd and IC50 values for each cyclopeptides were calculated.
Inhibitory effects of cyclic peptides were quantified by measuring their effects on the interactions between immobilized integrin and biotinylated soluble ligand. Integrin αvβ3 was immobilized on a 96 well plate. […] The wells were incubated with alkaline-phsphatase substrate and the intensities of yellow color product were measured in plate reader. […]
Integrin αvβ3 expressing U87MG cells were incubated with a series of concentration of cyclic peptides (0.01, 0.1, 1, 10, 100, 1000, 10000 nM) in the presence of 10 nM of green fluorescence labeled compound 21 for 2 hrs. […]

tumor = conditions: in vivo, cited from earlier work
[6] = test system: U87MG human glioblastoma tumor xenograft; type: in vivo, mouse
Method: PET Studies: In vivo microPET imaging of a tumor-bearing mouse is performed on an anesthetized mouse bearing tumor xenograft of U87MG human glioblastoma after administration of the test imaging cyclic peptides. Animals are induced with 5% isoflurane/oxygen until anesthetized and then maintained on 2-2.5% isoflurane/oxygen inhalation for the duration of each PET scanning procedure (up to 2 hours). Anesthetized animals are placed on a heated pad for the duration of each PET scan. Animals are scanned at 1 hour post-injection for 30 min.

FIG. 5 = experiment: FIG. 5
Method: Table printed on a drawing sheet, FIG. 5
The patent's description of the figure: FIG. 5 is a microPET imaging of Compound 19 in a U87MG xenograft mouse model at 1 hour post-injection.
First reader's note: Tissue uptake from the microPET image beside the table; rows are the right-side (RS) tumor, the left-side (LS) tumor and muscle.

[7] = comparison among cyclic peptides 4, 1 and RGDfK
[8] = comparison of cyclic peptides 18 and 23

Compound: CC([18F])C(=O)NC[C@H]1OC(C(=O)NCCCC[C@@H]2NC(=O)[C@@H](Cc3ccccc3)NC(=O)[C@H](CC(=O)O)NC(=O)CNC(=O)[C@H](CCCNC(=N)N)NC2=O)[C@@H](O)C(O)C1O (some centres unmarked) [[^18F]Galacto-RGD]
integrin binding affinity (integrin αvβ3 [1]): relatively low integrin binding affinity
tumor uptake (M21 melanoma xenograft): integrin αvβ3-specific tumor uptake
tracer localization [2]: did not localize on tumor cells
tumor standard uptake values ([3]; background statement): modest tumor standard uptake values
tracer accumulation in organs ([3]; both preclinical models and human studies): prominent tracer accumulation in the liver, kidneys, spleen, and intestines

potency (competition of binding) [4, 7]: very similar in potency
binding affinity to integrin αvβ3 (integrin αvβ3 [5]): high binding affinity
Compound: C[C@@H]1NC(=O)[C@H](CCCNC(=N)N)NC(=O)[C@H](CCCCN)NC(=O)[C@@H](Cc2ccccc2)NC(=O)[C@H](CC(=O)O)NC1=O [Compound 4] (cyclo(RAD[dF]K))

Compound: c(RGDyV)
tumor uptake (tumor; 125I-labeled peptide): receptor-specific tumor uptake
excretion (tumor): unfavorable hepatobiliary excretion
tumor washout (tumor): rapid tumor washout

Compound: C[C@@H]1NC(=O)[C@H](CCCNC(=N)N)NC(=O)[C@H](CCCCNC(=O)C2OC(CNC(=O)Cn3cc(CCCF)nn3)C(O)C(O)C2O)NC(=O)[C@@H](Cc2ccccc2)NC(=O)[C@H](CC(=O)O)NC1=O (some centres unmarked) [Compound 18] (cyclo(AD[dF]K(X1)R))
potency (competition of binding) [4, 8]: very similar in potency
binding affinity to integrin αvβ3 (integrin αvβ3 [5]): high binding affinity

Compound: C[C@@H]1NC(=O)[C@H](CCCNC(=N)N)NC(=O)[C@H](CCCCNC(=O)C2O[C@H](CNC(=O)Cn3cc(CCC[18F])nn3)[C@H](O)C(O)[C@@H]2O)NC(=O)[C@@H](Cc2ccccc2)NC(=O)[C@H](CC(=O)O)NC1=O (some centres unmarked) [Compound 19]
tumor uptake and retention ([6]; microPET, 1 hour post-injection, FIG. 5): good tumor uptake and retention
wash-out rate from muscle and other healthy tissues ([6]; mouse, in vivo): fast wash-out rate
%ID/g (FIG. 5): 0.042 %ID/g and 0.034 %ID/g and 0.025 %ID/g

potency (competition of binding) [4, 7]: very similar in potency
Compound: N=C(N)NCCC[C@@H]1NC(=O)[C@H](CCCCN)NC(=O)[C@@H](Cc2ccccc2)NC(=O)[C@H](CC(=O)O)NC(=O)[C@H](CO)NC1=O [Compound 1] (cyclo(D[dF]KRS))

Compound: C[C@@H]1NC(=O)[C@H](CCCNC(=N)N)NC(=O)[C@H](CCCCNC(=O)CCN(CCC(=O)NCCCC[C@@H]2NC(=O)[C@@H](Cc3ccccc3)NC(=O)[C@H](CC(=O)O)NC(=O)[C@H](C)NC(=O)[C@H](CCCNC(=N)N)NC2=O)C(=O)CCOCCOCCOCCOCCNC(=O)n2cc(CCCF)nn2)NC(=O)[C@@H](Cc2ccccc2)NC(=O)[C@H](CC(=O)O)NC1=O [Compound 23]
potency (competition of binding) [4, 8]: very similar in potency
